The target of this test is T1, LHRH rat pituitary receptor (Rattus norvegicus, UniProt P30969).
T1 construct: from tissue; host or cells: rat pituitary
T1 sequence (P30969 1-327): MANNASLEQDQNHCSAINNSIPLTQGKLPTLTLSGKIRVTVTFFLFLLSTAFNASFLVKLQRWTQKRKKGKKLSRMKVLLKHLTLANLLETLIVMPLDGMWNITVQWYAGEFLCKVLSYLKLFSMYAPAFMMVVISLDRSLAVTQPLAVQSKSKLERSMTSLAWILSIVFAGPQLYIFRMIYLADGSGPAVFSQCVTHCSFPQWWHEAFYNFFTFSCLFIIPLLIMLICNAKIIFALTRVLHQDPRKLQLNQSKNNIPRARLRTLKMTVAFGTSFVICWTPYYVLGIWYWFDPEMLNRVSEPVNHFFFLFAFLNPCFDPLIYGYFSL
The test is described as follows: LHRH rat pituitary receptor binding (pKI). The conditions noted are these: receptor binding affinity, negative logarithm of the equilibrium dissociation constants. As for the experimental part: Representative compounds of the present invention were evaluated in in vitro tests for LHRH rat pituitary receptor binding (pKI) and for LH inhibition from rat pituitary cells for antagonist potency (pA2). The tests employed the methods detailed in F. Haviv, et al. J. Med. Chem., 32: 2340-2344 (1989). The receptor binding affinity (pKI) is the negative logarithm of the equilibrium dissociation constants.

Experimental findings from patent US6020521A, “Macrolide LHRH antagonists” (Abbott Laboratories, priority 1998, dated 2000) are described below.

`CC[C@H]1OC(=O)[C@H](C)[C@@H](OC(=O)N2C(=O)OC[C@@H]2C)[C@H](C)[C@@H](O[C@@H]2O[C@H](C)C[C@H](NC(C)C)[C@H]2O)[C@](C)(OC)C[C@@H](C)C(=O)[C@H](C)[C@H]2N(CCc3ccc(Cl)cc3)C(=O)O[C@]12C` [Example 7, 11-Deoxy-11-[carboxy(4-chlorophenethyl)amino]-5-O-(3'-bis-N-desmethyl-3'-N-isopropyl)desosaminyl-3-O-[4-(S)-methyl-oxazolidin-2-one]carbamoyl-6-O-methyl-erythronolide A 11,12-(cyclic carbamate)]: the affinity, expressed as Ki, was 3.55 nM. Still for that read-out and setting: the value for `CC[C@H]1OC(=O)[C@H](C)[C@@H](OC(=O)N2COC[C@H]2C)[C@H](C)[C@@H](O[C@@H]2O[C@H](C)C[C@H](N(C)C(C)C)[C@H]2O)[C@](C)(OC)C[C@@H](C)C(=O)[C@H](C)[C@H]2N(CCc3ccc(Cl)cc3)C(=O)O[C@]12C` [Example 8, 11-Deoxy-11-[carboxy(4-chlorophenethyl)amino]-5-O-(3'-N-desmethyl-3'-N-isopropyl)desosaminyl-3-O-[4-(R)-methyl-oxazolidine]carbamoyl-6-O-methyl-erythronolide A 11,12-(cyclic carbamate)] was 11.7 nM. Regarding `CC[C@H]1OC(=O)[C@H](C)[C@@H](OC(=O)C2CCOC2)[C@H](C)[C@@H](O[C@@H]2O[C@H](C)C[C@H](N(C)C(C)C)[C@H]2O)[C@](C)(OC)C[C@@H](C)C(=O)[C@H](C)[C@H]2N(CCc3ccc(Cl)cc3)C(=O)O[C@]12C` (stereo partly drawn) [Example 9, 11-Deoxy-11-[carboxy(4-chlorophenethyl)amino]-5-O-(3'-N-desmethyl-3'-N-isopropyl)desosaminyl-3-O-(tetrahydro-3-furoyl)-6-O-methyl-erythronolide A 11 12-(cyclic carbamate)], the “p KI” value turned out to be 7.85. Regarding `CCC1OC(=O)C(C)C(OC(=O)C2CCOC2)C(C)C(OC2OC(C)CC(NC(C)C)C2O)C(C)(OC)CC(C)C(=O)C(C)C2N(CCc3ccc(Cl)cc3)C(=O)OC12C` (stereo not drawn) [Example 10, 11-Deoxy-11-[carboxy(4-chlorophenethyl)amino]-5-O-(3'-bis-N-desmethyl-3'-N-isopropyl)desosaminyl-3-O-(tetrahydro-3-furoyl)-6-O-methyl-erythronolide A 11,12-(cyclic carbamate)], the “p KI” value is 8.09.

For `CC[C@H]1OC(=O)[C@H](C)[C@@H](OC(=O)N2C(=O)OC[C@@H]2C)[C@H](C)[C@@H](O[C@@H]2O[C@H](C)C[C@H](N(C)C)[C@H]2O)[C@](C)(OC)C[C@@H](C)C(=O)[C@H](C)[C@H]2N(CCc3ccc(Cl)c(Cl)c3)C(=O)O[C@]12C` [Example 11, 11-Deoxy-11-[carboxy(3,4-dichlorophenethyl)amino]-3-O-[4-(S)-methyl-oxazolidin-2-one]carbamoyl-5-O-desosaminyl-6-O-methyl-erythronolide A 11,12-(cyclic carbamate)], the Ki (as a rule, the dissociation constant of the complex between target and ligand, obtained from inhibition or displacement) is 3.16 nM. `CC[C@H]1OC(=O)[C@H](C)[C@@H](OC(=O)N2C(=O)OC[C@@H]2C)[C@H](C)[C@@H](O[C@@H]2O[C@H](C)C[C@H](N(C)C3CCC3)[C@H]2O)[C@](C)(OC)C[C@@H](C)C(=O)[C@H](C)[C@H]2N(CCc3ccc(Cl)c(Cl)c3)C(=O)O[C@]12C` [Example 13, 11-Deoxy-11-[carboxy(3,4-dichlorophenethyl)amino]-3-O-[4-(S)-methyl-oxazolidin-2-one]carbamoyl-5-O-(3'-N-desmethyl-3'-N-cyclobutyl)desosaminyl-6-O-methyl-erythronolide A 11,12-(cyclic carbamate)] gave a Ki of 3.09 nM. On to `CC[C@H]1OC(=O)[C@H](C)[C@@H](OC(=O)N2C(=O)OC[C@@H]2C)[C@H](C)[C@@H](O[C@@H]2O[C@H](C)C[C@H](N(C)C3CCCCC3)[C@H]2O)[C@](C)(OC)C[C@@H](C)C(=O)[C@H](C)[C@H]2N(CCc3ccc(Cl)c(Cl)c3)C(=O)O[C@]12C` [Example 15, 11-Deoxy-11-[carboxy(3,4-dichlorophenethyl)amino]-3-O-[4-(S)-methyl-oxazolidin-2-one]carbamoyl-5-O-(3'-N-desmethyl-3'-N-cyclohexyl)desosaminyl-6-O-methyl-erythronolide A 11,12-(cyclic carbamate)], for which the Ki was 3.89 nM. The compound `CCCN(C)[C@H]1C[C@@H](C)O[C@@H](O[C@@H]2[C@@H](C)[C@H](OC(=O)N3C(=O)OC[C@@H]3C)[C@@H](C)C(=O)O[C@H](CC)[C@@]3(C)OC(=O)N(CCc4ccc(Cl)c(Cl)c4)[C@@H]3[C@@H](C)C(=O)[C@H](C)C[C@@]2(C)OC)[C@@H]1O` [Example 16, 11-Deoxy-11-[carboxy(3,4-dichlorophenethyl)amino]-3-O-[4-(S)-methyl-oxazolidin-2-one]carbamoyl-5-O-(3'-N-desmethyl-3'-N-n-propyl)desosaminyl-6-O-methyl-erythronolide A 11,12-(cyclic carbamate)] showed a Ki of 3.98 nM. `CC[C@H]1OC(=O)[C@H](C)[C@@H](OC(=O)N2C(=O)OC[C@@H]2C)[C@H](C)[C@@H](O[C@@H]2O[C@H](C)C[C@H](N(C)CC(C)C)[C@H]2O)[C@](C)(OC)C[C@@H](C)C(=O)[C@H](C)[C@H]2N(CCc3ccc(Cl)c(Cl)c3)C(=O)O[C@]12C` [Example 17, 11-Deoxy-11-[carboxy(3,4-dichlorophenethyl)amino]-3-O-[4-(S)-methyl-oxazolidin-2-one]carbamoyl-5-O-(3'-N-desmethyl-3'-N-isobutyl)desosaminyl-6-O-methyl-erythronolide A 11,12-(cyclic carbamate)] showed a Ki of 0.562 nM. On the same count and under the same terms, the figure for `CC[C@H]1OC(=O)[C@H](C)[C@@H](OC(=O)N2C(=O)OC[C@@H]2C)[C@H](C)[C@@H](O[C@@H]2O[C@H](C)C[C@H](N(C)CC3CCC3)[C@H]2O)[C@](C)(OC)C[C@@H](C)C(=O)[C@H](C)[C@H]2N(CCc3ccc(Cl)c(Cl)c3)C(=O)O[C@]12C` [Example 18, 11-Deoxy-11-[carboxy(3,4-dichlorophenethyl)amino]-3-O-[4-(S)-methyl-oxazolidin-2-one]carbamoyl-5-O-(3'-N-desmethyl-3'-N-cyclobutylmethyl)desosaminyl-6-O-methyl-erythronolide A 11,12-(cyclic carbamate)] is 0.933 nM.

As to `CC[C@H]1OC(=O)[C@H](C)[C@@H](OC(=O)N2C(=O)OC[C@@H]2C)[C@H](C)[C@@H](O[C@@H]2O[C@H](C)C[C@H](N(CC)C(C)C)[C@H]2O)[C@](C)(OC)C[C@@H](C)C(=O)[C@H](C)[C@H]2N(CCc3ccc(Cl)c(Cl)c3)C(=O)O[C@]12C` [Example 20, 11-Deoxy-11-[carboxy(3,4-dichlorophenethyl)amino]-3-O-[4-(S)-methyl-oxazolidin-2-one]carbamoyl-5-O-(3'-bis-N-desmethyl-3'-N-ethyl-3'-N-isopropyl)desosaminyl-6-O-methyl-erythronolide A 11,12-(cyclic carbamate)], the Ki was 0.589 nM. Consider `CCCN(C(C)C)[C@H]1C[C@@H](C)O[C@@H](O[C@@H]2[C@@H](C)[C@H](OC(=O)N3C(=O)OC[C@@H]3C)[C@@H](C)C(=O)O[C@H](CC)[C@@]3(C)OC(=O)N(CCc4ccc(Cl)c(Cl)c4)[C@@H]3[C@@H](C)C(=O)[C@H](C)C[C@@]2(C)OC)[C@@H]1O` [Example 21, 11-Deoxy-11-[carboxy(3,4-dichlorophenethyl)amino]-3-O-[4-(S)-methyl-oxazolidin-2-one]carbamoyl-5-O-(3'-bis-N-desmethyl-3'-N-n-propyl-3'-N-isopropyl)desosaminyl-6-O-methyl-erythronolide A 11,12-(cyclic carbamate)], for which the affinity, expressed as Ki, was 0.245 nM.
